Measured values published in patent US11040119B2, “Compositions and methods for assessing neuromuscular function” (Biogen MA Inc., priority 2013, dated 2021).
“Also recorded” adds a separate entry of the source.

Key:
[1] = prepared radiopharmaceutical; cited from earlier work
[2] = in vivo; cited from earlier work
[3] = Simultaneous dual-radiotracer SPECT/CT imaging of 99mTc-Sestamibi and 201Tl-Cl uptake; assay type: in vivo, mouse and rat; settings: FIG. 1; for retention in muscle: i.v. single injection of both agents, imaging 3 hours later
Description: This example describes an imaging approach for assessing skeletal muscle health by administering ^99mTc-Sestamibi and ^201Tl—Cl both in a single intravenous injection and then simultaneously detecting their accumulation into skeletal muscle through SPECT imaging via distinct radiation energy windows, which are specific for each isotope. Through this approach, each imaging agent alone, as well as the change in uptake of one agent relative to the other, was measured, permitting evaluation of multiple physiological processes in muscle simultaneously.
Imaging agents (^99mTc-Sestamibi and ^201Tl-Chloride) were ordered from commercial radiopharmacies for calibration and delivery on each day of SPECT imaging. Imaging agents were administered by intravenous injection in the lateral tail-vein. Animals were returned to their cages after injection for the distribution period or placed directly on the imaging system for SPECT acquisition, depending on the imaging protocol and desired time-points. For the imaging session, subjects were anesthetized using a gas mixture of isoflurane and oxygen. In-vivo SPECT and CT data were acquired using the NanoSPECT/CT® (Bioscan, Washington, D.C.), a dual modality imaging system that combines a 4-headed SPECT camera with a computed tomography (CT) acquisition system on the same axis of rotation. During imaging, subjects were placed on a heated bed with integrated anesthesia delivery and bed heating. The animals' body temperatures were maintained at 36 to 37° C. for the duration of image acquisition. Each imaging time-point included three scans: a planar x-ray scout scan, an x-ray CT scan for anatomical reference (6-9 min., 45-65 KVp, 180 angular projections per FOV), and a SPECT scan (20-90 min., 20 angular projections per FOV). SPECT data were reconstructed using the HiSPECT processing module (Scivis GmbH, Gottingen, Germany). […] Uptake and concentration of radiotracer were quantified in select regions-of-interest (ROI) using the VivoQuant™ post-processing suite. […]

skeletal muscle [4] = assay: Effect of neuromuscular stimulation with edrophonium on 99mTc-Sestamibi and 201Tl-Cl uptake into muscle (SPECT/CT); assay type: in vivo, rats
Description: In order to assess the action of neuromuscular stimulation on ^99mTc-Sestamibi and ^201Tl—Cl uptake into muscle we used the acetylcholinesterase inhibitor edrophonium (0.2 mg/kg, i.v.) to enhance ongoing neuromuscular synaptic transmission. We used three different cohorts of animals (n=3). In one cohort we examined baseline neuromuscular activity by giving the ^99mTc-Sestamibi and ^201Tl—Cl (listed as m/t in figure) at time zero and acquiring images under brief isoflurane anesthesia at 30 minutes post injection. Another cohort received edrophonium injection immediately following the m/t dosing but prior to the imaging under anesthesia. The last cohort received the edrophonium 30 minutes prior to the m/t dosing. This approach standardized the anesthesia and imaging phase of the experiment while making the edrophonium dose timing the only variable.
FIG. 4 is an exemplary schematic diagram of an experiment assessing the impact of edrophonium on the pharmacokinetics of ^99mTc-Sestamibi and ^201Tl—Cl. ^99mTc-Sestamibi and ^201Tl—Cl were imaged in three cohorts of rats (n of 3 each): control/baseline; prior to injection of 0.2 mg/kg of edrophonium; following injection of 0.2 mg/kg of edrophonium. Whole body SPECT/CT images were collected 30 minutes post-injection of the mixed ^99mTc-Sestamibi and ^201Tl—Cl dose. The drugs' gamma emissions of the radioisotopes (^99mTc and ^201Tl) were collected in separate energy windows, permitting simultaneous imaging of the relevant radiopharmaceuticals. […] Thallium uptake was increased by the introduction of edrophonium in control rats as indicated qualitatively by brighter muscle uptake on a common scale.
However, either pre- or post-m/t, edrophonium dosing had no effect on ^99mTc-Sestamibi uptake into muscle. FIG. 6 depicts comparison of radiopharmaceutical uptake in skeletal muscle between two imaging paradigms. The ‘+’ represents subjects that received an edrophonium injection (i.v.) immediately after radiotracer administration. […] All other aspects of data collection were identical between the ‘+’ and ‘−’ scenarios. Quantitative units of radioactivity per volume was expressed as uptake: percent injected dose (% ID), activity (mCi, kBq).

skeletal muscle [5] = assay: Effect of continuous isoflurane anesthesia on muscle uptake of the two radiopharmaceutical agents (SPECT); assay type: in vivo; settings: continuous anesthesia through 30 minute uptake period vs awake uptake period; right and left legs; FIG. 3
Description: Imaging agents (^99mTc-Sestamibi and ^201Tl-Chloride) were ordered from commercial radiopharmacies for calibration and delivery on each day of SPECT imaging. Imaging agents were administered by intravenous injection in the lateral tail-vein. Animals were returned to their cages after injection for the distribution period or placed directly on the imaging system for SPECT acquisition, depending on the imaging protocol and desired time-points. For the imaging session, subjects were anesthetized using a gas mixture of isoflurane and oxygen. In-vivo SPECT and CT data were acquired using the NanoSPECT/CT® (Bioscan, Washington, D.C.), a dual modality imaging system that combines a 4-headed SPECT camera with a computed tomography (CT) acquisition system on the same axis of rotation. During imaging, subjects were placed on a heated bed with integrated anesthesia delivery and bed heating. The animals' body temperatures were maintained at 36 to 37° C. for the duration of image acquisition. […] Uptake and concentration of radiotracer were quantified in select regions-of-interest (ROI) using the VivoQuant™ post-processing suite.
This need for imaging under anesthesia in animals is not necessary in human imaging studies. […] Quantitative units of radioactivity per volume was expressed as uptake: percent injected dose (% ID), activity (mCi, kBq). […]

[6] = edrophonium i.v. immediately after radiotracer administration vs none, FIG. 6

Row | Compound | stability [1] | biological half-life [2] | extraction efficiency [2] | retention in muscle [3] | further results
1 | [C-]#[N+]CC(C)(C)OC.[C-]#[N+]CC(C)(C)OC.[C-]#[N+]CC(C)(C)OC.[C-]#[N+]CC(C)(C)OC.[C-]#[N+]CC(C)(C)OC.[C-]#[N+]CC(C)(C)OC.[Tc] [^99mTc-Sestamibi] | 6 h | long | high | consistent retention | 
2 | [Cl][201Tl] [^201Tl—Cl, ^201Thallium-Chloride] |  |  |  | consistent retention | muscle accumulation, extent relative to 99mTc-Sestamibi ([3]; i.v., imaging 3 hours post-injection): more widespread
3 | CC[N+](C)(C)c1cccc(O)c1 [edrophonium] |  |  |  |  | 99mTc-Sestamibi uptake into muscle (skeletal muscle [4]; edrophonium 0.2 mg/kg i.v., either pre- or post-m/t dosing, images 30 minutes post-injection): no effect; 201Tl uptake into muscle (skeletal muscle [4]; edrophonium 0.2 mg/kg i.v., pre- or post-m/t dosing vs baseline, images 30 minutes post-injection, FIG. 5): dramatically enhanced; also recorded: increased; 99mTc-Sestamibi uptake in skeletal muscle, statistical evaluation (skeletal muscle [4]; [6]): not; 201Tl uptake in skeletal muscle, statistical evaluation (skeletal muscle [4]; [6]): highly significant edrophonium effect
4 | FC(F)OC(Cl)C(F)(F)F (centres unmarked) [isoflurane] |  |  |  |  | accumulation of both agents (99mTc-Sestamibi and 201Tl-Cl) into muscle (skeletal muscle [5]): inhibited
5 | ^99mTc-Teboroxime | 6 h | short | high |  | 
